Measured values published in patent US10787457B2 (priority 2015, dated 2020).

Conditions: mouse hepatic microsome 0.25 mg/mL; 1 μM; 37° C. 30 minutes; NADPH-generating system

In the case of `Cc1ccc(-c2nn(C(C)(C)C)c3ncnc(N)c23)cc1` [Compound 4 of Comparative Examples, 1-(tert-butyl)-3-(p-tolyl)pyrazolo[3,4-d]pyrimidin-4-amine], the “percentage of the remaining tested compounds (remaining %)” value was 0%.
